We go through three molecules from patent publication US7563613B2, “Detoxification and decontamination using nanotechnology therapy” (University of Florida, priority 2001, dated 2009).

Data set [1] deals with guinea pig isolated hearts. Description: bupivacaine-induced QRS prolongation in isolated hearts (FIG. 8). Conditions: bupivacaine (1 μM); isolated hearts paced at 200 BPM.
The conditions of data set [2]: cited from earlier work.
For data set [3] the following is noted: at toxic plasma concentration; cited from earlier work.

Consider `CCCCN1CCCCC1C(=O)Nc1c(C)cccc1C` (stereo not shown) [Bupivacaine, bupivacaine], for which, in data set [1], the QRS prolongation entry is listed as “induces QRS prolongation”.

As to `CN(C)CCC=C1c2ccccc2CCc2ccccc21` [amitriptyline], the “plasma concentration that begins to cause cardiac toxicity” value in data set [2] (in vivo) is on record as ~1,000 ng/ml. In addition, the bound in plasma in data set [3] is 94.8±0.8%.

In the case of `C[C@H]1O[C@@H](O[C@H]2[C@@H](O)C[C@H](O[C@H]3[C@@H](O)C[C@H](O[C@H]4CC[C@@]5(C)[C@H](CC[C@@H]6[C@@H]5C[C@@H](O)[C@]5(C)[C@@H](C7=CC(=O)OC7)CC[C@]65O)C4)O[C@@H]3C)O[C@@H]2C)C[C@H](O)[C@@H]1O` [digoxin], the “concentration at which toxicity is caused” value in data set [2] (low concentrations) was “approximately 1 nM”.
